What all share (assay): relative viability (nuclei count vs DMSO), 5 days (fraction); higher = more cells survive
Compound in assay [1]: Cc1ccc(C(=O)Nc2ccc(CN3CCN(C)CC3)c(C(F)(F)F)c2)cc1C#Cc1cnc2cccnn12 [Ponatinib] + Cc1nc(Nc2ncc(C(=O)Nc3c(C)cccc3Cl)s2)cc(N2CCN(CCO)CC2)n1 [Dasatinib] (partner 0.075 µM)
A digest of the protocol:
(§1)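 A single step with final 0.05% Triton X-100, 1% formaldehyde and 1 ug/ml Hoechst fixed the cells and stained nuclei 5 days after treatment. Lung cancer cell lines in 1536-well plates had been treated by pin tool the day after seeding with one drug alone or a fixed anchor-drug dose plus five library-drug doses (not always all listed) in √10 steps, and nuclei were counted on 4× images. Relative viability is the ratio of nuclei in treated wells to nuclei in vehicle wells, taken as the median of duplicate plates.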

Compound in assay [2]: Cc1ccc(Nc2nccc(N(C)c3ccc4c(C)n(C)nc4c3)n2)cc1S(N)(=O)=O [Pazopanib] + CC(=O)Nc1cccc(-n2c(=O)n(C3CC3)c(=O)c3c(Nc4ccc(I)cc4F)n(C)c(=O)c(C)c32)c1 [Trametinib] (partner 0.02 µM)
A digest of the protocol:
as §1

Compound in assay [3]: Cc1ccc(Nc2nccc(N(C)c3ccc4c(C)n(C)nc4c3)n2)cc1S(N)(=O)=O [Pazopanib] + CC1(C)CCC(c2ccc(Cl)cc2)=C(CN2CCN(c3ccc(C(=O)NS(=O)(=O)c4ccc(N[C@H](CCN5CCOCC5)CSc5ccccc5)c(S(=O)(=O)C(F)(F)F)c4)cc3)CC2)C1 [Navitoclax] (partner 0.5 µM)
A digest of the protocol: as §1

Compound in assay [4]: Cc1ccc(Nc2nccc(N(C)c3ccc4c(C)n(C)nc4c3)n2)cc1S(N)(=O)=O [Pazopanib] + COc1cccc2cc(-c3nc([C@H]4CC[C@H](C(=O)O)CC4)n4ncnc(N)c34)[nH]c12 [OSI-027] (partner 0.5 µM)
The procedure, abridged: as §1

These results are taken from the supplement of paper PMC10307832.

As to UMC-11, the relative viability in assay [1] (first compound 0.002 µM) was 0.465; in assay [1] (first compound 0.006325 µM) it was 0.451; in assay [1] (first compound 0.06325 µM), 0.51; in assay [1] (first compound 0.2 µM) it was 0.465; in assay [2] (first compound 0.01 µM), 0.552; in assay [2] (first compound 0.03162 µM), 0.732. In addition, the relative viability was 0.672 in assay [2] (first compound 0.1 µM); 0.756 in assay [2] (first compound 0.3162 µM); 0.846 in assay [2] (first compound 1 µM); 0.318 in assay [3] (first compound 0.01 µM); 0.312 in assay [3] (first compound 0.03162 µM); 0.303 in assay [3] (first compound 0.1 µM). Besides, the relative viability in assay [3] (first compound 0.3162 µM) came out at 0.268; in assay [3] (first compound 1 µM), 0.348; in assay [4] (first compound 0.01 µM), 0.501; in assay [4] (first compound 0.03162 µM), 0.544; in assay [4] (first compound 0.1 µM) it was 0.442; in assay [4] (first compound 0.3162 µM) it was 0.504. The relative viability in assay [4] (first compound 1 µM) turned out to be 0.541.
